Read-outs that look alike come from different tables or passages of the source. Starred links: 1 amine or outer side, 2 acyl side, 3 side chain; linkers in the order of their positions; H or OH if unused. Non-standard residues stand in square brackets, D forms with d. Residues, ends and D or L forms follow the SMILES beside them. Groups on a side chain read outwards from the residue. *: point of attachment. X1 = CC(C)(CCNC(=N)N)[C@H](N[*:1])C(=O)[*:2]; C20 diacid = O=C(O)CCCCCCCCCCCCCCCCCCC(=O)*; C18 diacid = O=C(O)CCCCCCCCCCCCCCCCC(=O)*; γGlu = O=C(O)[C@H](CCC(=O)[*:2])N[*:1]; Palmitoyl = CCCCCCCCCCCCCCCC(=O)*; αMeF = C[C@](N)(Cc1ccccc1)C(=O)O; PEG2 = NCCOCCOCCC(=O)O; AEEA = NCCOCCOCC(=O)O; Aib = CC(C)(N)C(=O)O

In assay [1] the target is human glucagon receptor (hGCGR) (Homo sapiens, UniProt P47871). The assay can be described thus: cAMP production (HTRF) in CHO cells expressing hGCGR. Type of assay: cell-based. Details: expressed in transfected cells. The conditions noted are these: geometric mean, read-out: hGluc-R EC50. In short, it runs like this:
(§1)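 Cells were resuspended in assay buffer at batch-optimized density, typically 1×10^5 cells/mL for hGLP-1R and 2×10^5 cells/mL for hGCGR. After 30 min incubation at room temperature with compound, cAMP was measured by two-step HTRF. EC50 values came from 4-parameter logistic fits of % Delta F.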

In assay [2] the target is human GLP-1 receptor (hGLP-1R) (Homo sapiens, UniProt P43220). The assay can be described thus: cAMP production (HTRF) in CHO cells expressing hGLP-1R. The conditions noted are these: for % Relative Potency Ratio: % GLP-1R activity relative to GLP-1 / % GlucR activity relative to glucagon; for EC50: geometric mean, read-out: hGLP-1R EC50. Type of assay: cell-based. Set-up: expressed in transfected cells. In short, it runs like this: as §1
human GLP-1 receptor (hGLP-1R), sequence (P43220 24-463): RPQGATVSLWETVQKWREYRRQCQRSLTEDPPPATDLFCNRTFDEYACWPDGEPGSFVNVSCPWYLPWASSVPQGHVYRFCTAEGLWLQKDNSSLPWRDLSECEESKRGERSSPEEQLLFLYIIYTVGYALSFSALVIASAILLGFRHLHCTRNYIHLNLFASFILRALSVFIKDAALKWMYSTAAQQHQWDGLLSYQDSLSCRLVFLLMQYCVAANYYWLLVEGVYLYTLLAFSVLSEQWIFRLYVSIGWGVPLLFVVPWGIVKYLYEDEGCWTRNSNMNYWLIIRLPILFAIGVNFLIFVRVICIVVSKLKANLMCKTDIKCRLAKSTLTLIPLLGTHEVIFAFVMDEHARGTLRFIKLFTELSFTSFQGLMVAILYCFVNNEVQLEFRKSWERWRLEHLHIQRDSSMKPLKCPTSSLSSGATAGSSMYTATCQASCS
In general terms: Cyclic AMP is a second messenger, typically raised through Gs and lowered through Gi signalling.

Setting [3] is: Table 6, peptides modified at position 17, cAMP in CHO hGCGR cells.
Setting [4] is: Table 6, peptides modified at position 17, cAMP in CHO hGLP-1R cells.

human glucagon receptor (hGCGR), sequence (P47871 26-477): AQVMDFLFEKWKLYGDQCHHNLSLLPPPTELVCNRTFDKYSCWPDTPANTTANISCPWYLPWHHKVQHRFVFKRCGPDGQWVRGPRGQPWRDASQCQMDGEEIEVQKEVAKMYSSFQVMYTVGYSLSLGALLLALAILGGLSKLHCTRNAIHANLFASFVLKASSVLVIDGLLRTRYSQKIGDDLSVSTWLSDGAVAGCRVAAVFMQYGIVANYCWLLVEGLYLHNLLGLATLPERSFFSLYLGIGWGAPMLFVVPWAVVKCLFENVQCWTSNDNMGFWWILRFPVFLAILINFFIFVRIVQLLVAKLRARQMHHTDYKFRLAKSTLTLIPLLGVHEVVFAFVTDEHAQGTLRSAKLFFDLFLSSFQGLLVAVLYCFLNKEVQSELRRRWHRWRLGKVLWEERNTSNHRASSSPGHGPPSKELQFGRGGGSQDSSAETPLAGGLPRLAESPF

In general, EC50 refers to the concentration needed to bring the measured effect to its halfway point. Regarding `CC[C@H](C)[C@H](NC(=O)C(C)(C)NC(=O)[C@H](CCCCNC(=O)COCCOCCNC(=O)COCCOCCNC(=O)CC[C@H](NC(=O)CCCCCCCCCCCCCCCCC(=O)O)C(=O)O)NC(=O)[C@@H](NC(=O)[C@](C)(Cc1ccccc1)NC(=O)[C@H](CC(=O)O)NC(=O)[C@H](CCC(N)=O)NC(=O)[C@H](C)NC(=O)[C@H](C)NC(=O)[C@H](CCC(N)=O)NC(=O)[C@H](CO)NC(=O)[C@H](CC(=O)O)NC(=O)[C@H](CC(C)C)NC(=O)[C@](C)(Cc1ccccc1)NC(=O)[C@H](CCCCN)NC(=O)[C@H](CO)NC(=O)[C@@H](NC(=O)[C@H](CC(=O)O)NC(=O)[C@H](CO)NC(=O)[C@@H](NC(=O)[C@](C)(Cc1ccccc1)NC(=O)[C@H](CO)NC(=O)CNC(=O)[C@H](Cc1c[nH]cn1)NC(=O)C(C)(C)NC(=O)[C@@H](N)Cc1c[nH]cn1)[C@@H](C)O)C(C)C)C(C)C)C(=O)N[C@@H](C)C(=O)N[C@@H](CC(N)=O)C(=O)N[C@H](C(N)=O)[C@@H](C)O` [Peptide 383] (H-H[Aib]HGS[αMeF]TSDVSK[αMeF]LDSQAAQD[αMeF]VK([AEEA-AEEA-γGlu-C18 diacid])[Aib]IANT-NH2; N-terminus assumed), the EC50 is 232 pM in assay [1] (cAMP, CHO cells, 0.1% BSA) and 197 pM in assay [2] (cAMP, CHO cells, 0.1% BSA). For the same molecule, in assay [2], the “% Relative Potency Ratio” value is 2.3.
In the same order, the values of `CC[C@H](C)[C@H](NC(=O)C(C)(C)NC(=O)[C@H](CCCCNC(=O)COCCOCCNC(=O)COCCOCCNC(=O)CC[C@H](NC(=O)CC[C@H](NC(=O)CCCCCCCCCCCCCCCCCCC(=O)O)C(=O)O)C(=O)O)NC(=O)[C@@H](NC(=O)[C@](C)(Cc1ccccc1)NC(=O)[C@H](CC(=O)O)NC(=O)[C@H](CCC(N)=O)NC(=O)[C@H](C)NC(=O)[C@H](C)NC(=O)[C@H](CCC(N)=O)NC(=O)[C@H](CO)NC(=O)[C@H](CC(=O)O)NC(=O)[C@H](CC(C)C)NC(=O)[C@](C)(Cc1ccccc1)NC(=O)[C@H](CCCCN)NC(=O)[C@H](CO)NC(=O)[C@@H](NC(=O)[C@H](CC(=O)O)NC(=O)[C@H](CO)NC(=O)[C@@H](NC(=O)[C@](C)(Cc1ccccc1)NC(=O)[C@H](CO)NC(=O)CNC(=O)[C@H](Cc1c[nH]cn1)NC(=O)C(C)(C)NC(=O)[C@@H](N)Cc1c[nH]cn1)[C@@H](C)O)C(C)C)C(C)C)C(=O)N[C@@H](C)C(=O)N[C@@H](CC(N)=O)C(=O)N[C@H](C(N)=O)[C@@H](C)O` [Peptide 384] (H-H[Aib]HGS[αMeF]TSDVSK[αMeF]LDSQAAQD[αMeF]VK([AEEA-AEEA-γGlu-γGlu-C20 diacid])[Aib]IANT-NH2; N-terminus assumed) are 1240 pM, 797 pM and 3.1.
On to `CCCCCCCCCCCCCCCC(=O)N[C@@H](CCC(=O)N[C@@H](CCC(=O)NCCOCCOCCC(=O)NCCOCCOCCC(=O)NCCCC[C@H](NC(=O)[C@H](CCCCN)NC(=O)[C@H](CO)NC(=O)[C@@H](NC(=O)[C@H](CC(=O)O)NC(=O)[C@H](CO)NC(=O)[C@@H](NC(=O)[C@](C)(Cc1ccccc1)NC(=O)[C@H](CO)NC(=O)CNC(=O)[C@H](CCC(N)=O)NC(=O)[C@H](CO)NC(=O)[C@@H](N)Cc1c[nH]cn1)[C@@H](C)O)C(C)C)C(=O)N[C@@H](CC(C)C)C(=O)N[C@@H](CC(=O)O)C(=O)N[C@@H](CO)C(=O)N[C@H](C(=O)N[C@@H](C)C(=O)N[C@@H](C)C(=O)N[C@@H](CCC(N)=O)C(=O)N[C@@H](CC(=O)O)C(=O)N[C@@](C)(Cc1ccccc1)C(=O)N[C@H](C(=O)N[C@@H](CCC(=O)O)C(=O)NC(C)(C)C(=O)N[C@@H](CC(C)C)C(=O)N[C@@H](C)C(=O)N[C@@H](CC(N)=O)C(=O)N[C@H](C(N)=O)[C@@H](C)O)C(C)C)C(C)(C)CCNC(=N)N)C(=O)O)C(=O)O` [Peptide 400, HSQGS(αMePhe)TSDVSKK((PEG)2-(PEG)2-γE-γE-Palmitoyl)13LDS(β-dimethylArg)AAQD(αMePhe)VE(Aib)LANT-amide] (H-HSQGS[αMeF]TSDVSKK([PEG2-PEG2-γGlu-γGlu-Palmitoyl])LDS[X1]AAQD[αMeF]VE[Aib]LANT-NH2; N-terminus assumed), for which the EC50 in assay [1] (cAMP, CHO cells, 0.1% BSA) worked out at 10.7 pM; in assay [2] (cAMP, CHO cells, 0.1% BSA), 1.27 pM. Further, the “% Relative Potency Ratio” value in assay [2] is 16.7.
With `CC[C@H](C)[C@H](NC(=O)C(C)(C)NC(=O)[C@H](CCC(N)=O)NC(=O)[C@@H](NC(=O)[C@](C)(Cc1ccccc1)NC(=O)[C@H](CC(=O)O)NC(=O)[C@H](CCC(N)=O)NC(=O)[C@H](C)NC(=O)[C@H](C)NC(=O)[C@H](CCCNC(=N)N)NC(=O)[C@H](CO)NC(=O)[C@H](CC(=O)O)NC(=O)[C@H](CC(C)C)NC(=O)[C@H](CCCCNC(=O)COCCOCCNC(=O)COCCOCCNC(=O)CC[C@H](NC(=O)CCCCCCCCCCCCCCCCC(=O)O)C(=O)O)NC(=O)[C@H](CCCCN)NC(=O)[C@H](CO)NC(=O)[C@@H](NC(=O)[C@H](CC(=O)O)NC(=O)[C@H](CO)NC(=O)[C@@H](NC(=O)[C@](C)(Cc1ccccc1)NC(=O)[C@H](CO)NC(=O)CNC(=O)[C@H](Cc1c[nH]cn1)NC(=O)C(C)(C)NC(=O)[C@@H](N)Cc1c[nH]cn1)[C@@H](C)O)C(C)C)C(C)C)C(=O)N[C@@H](C)C(=O)N[C@@H](CC(N)=O)C(=O)N[C@H](C(N)=O)[C@@H](C)O` [Peptide 406] (H-H[Aib]HGS[αMeF]TSDVSKK([AEEA-AEEA-γGlu-C18 diacid])LDSRAAQD[αMeF]VQ[Aib]IANT-NH2; N-terminus assumed), the EC50 in assay [1] (cAMP, CHO cells, 0.1% BSA) was 7310 pM; in assay [2] (cAMP, CHO cells, 0.1% BSA) it was 458 pM. Moreover, the “% Relative Potency Ratio” value in assay [2] was 31.6.
In the case of `CC(C)C[C@H](NC(=O)[C@H](Cc1c[nH]c2ccccc12)NC(=O)[C@H](CCCNC(=N)N)NC(=O)[C@@H](NC(=O)[C@H](Cc1ccccc1)NC(=O)[C@H](CC(=O)O)NC(=O)[C@H](CCC(N)=O)NC(=O)[C@H](C)NC(=O)[C@H](CCCNC(=N)N)NC(=O)[C@H](CCCCNC(=O)COCCOCCNC(=O)COCCOCCNC(=O)CC[C@H](NC(=O)CC[C@H](NC(=O)CCCCCCCCCCCCCCCCCCC(=O)O)C(=O)O)C(=O)O)NC(=O)[C@@H](NC(=O)[C@H](CC(=O)O)NC(=O)[C@H](CC(C)C)NC(=O)[C@](C)(Cc1ccccc1)NC(=O)[C@H](CCCCN)NC(=O)[C@H](CO)NC(=O)[C@@H](NC(=O)[C@H](CC(=O)O)NC(=O)[C@H](CO)NC(=O)[C@@H](NC(=O)[C@H](Cc1ccccc1)NC(=O)[C@@H](NC(=O)CNC(=O)[C@H](CCC(N)=O)NC(=O)C(C)(C)NC(=O)[C@@H](N)Cc1c[nH]cn1)[C@@H](C)O)[C@@H](C)O)C(C)C)[C@@H](C)O)C(C)C)C(=O)N[C@@H](CCC(=O)O)C(=O)N[C@@H](C)C(=O)NC(C)(C)C(=O)NCC(=O)O` [Peptide 408] (H-H[Aib]QGTFTSDVSK[αMeF]LDTK([AEEA-AEEA-γGlu-γGlu-C20 diacid])RAQDFVRWLEA[Aib]G-OH; N-terminus assumed), the EC50 in assay [1] (setting [3]) is 828 pM; in assay [2] (setting [4]), 370 pM. Moreover, the “% Relative Potency Ratio” value in assay [2] (Table 6) is on record as 4.4.
For `CC(C)C[C@H](NC(=O)[C@H](Cc1c[nH]c2ccccc12)NC(=O)[C@H](C)NC(=O)[C@@H](NC(=O)[C@H](Cc1ccccc1)NC(=O)[C@H](CC(=O)O)NC(=O)[C@H](CCCNC(=N)N)NC(=O)[C@H](C)NC(=O)[C@H](CCCNC(=N)N)NC(=O)[C@H](CCCCNC(=O)COCCOCCNC(=O)COCCOCCNC(=O)CC[C@H](NC(=O)CCCCCCCCCCCCCCCCC(=O)O)C(=O)O)NC(=O)[C@@H](NC(=O)[C@H](CC(=O)O)NC(=O)[C@H](CC(C)C)NC(=O)[C@](C)(Cc1ccccc1)NC(=O)[C@H](CCCCN)NC(=O)[C@H](CO)NC(=O)[C@@H](NC(=O)[C@H](CC(=O)O)NC(=O)[C@H](CO)NC(=O)[C@@H](NC(=O)[C@H](Cc1ccccc1)NC(=O)[C@@H](NC(=O)CNC(=O)[C@H](CCC(N)=O)NC(=O)C(C)(C)NC(=O)[C@@H](N)Cc1c[nH]cn1)[C@@H](C)O)[C@@H](C)O)C(C)C)[C@@H](C)O)C(C)C)C(=O)N[C@@H](CC(C)C)C(=O)NC(C)(C)C(=O)N[C@H](C(=O)N[C@@H](CCC(=O)O)C(=O)O)[C@@H](C)O` [Peptide 409] (H-H[Aib]QGTFTSDVSK[αMeF]LDTK([AEEA-AEEA-γGlu-C18 diacid])RARDFVAWLL[Aib]TE-OH; N-terminus assumed), the figures for the EC50 in assay [1] (setting [3]) and in assay [2] (setting [4]) were 203 pM and 22.7 pM, respectively. Further, in assay [2] (Table 6), the “% Relative Potency Ratio” value is recorded as 17.7.
In the same order, the values of `CC(C)C[C@H](NC(=O)[C@H](Cc1c[nH]c2ccccc12)NC(=O)[C@H](C)NC(=O)[C@@H](NC(=O)[C@H](Cc1ccccc1)NC(=O)[C@H](CC(=O)O)NC(=O)[C@H](CCCNC(=N)N)NC(=O)[C@H](C)NC(=O)[C@H](CCCNC(=N)N)NC(=O)[C@H](CCCCNC(=O)COCCOCCNC(=O)COCCOCCNC(=O)CC[C@H](NC(=O)CCCCCCCCCCCCCCCCCCC(=O)O)C(=O)O)NC(=O)[C@@H](NC(=O)[C@H](CC(=O)O)NC(=O)[C@H](CC(C)C)NC(=O)[C@](C)(Cc1ccccc1)NC(=O)[C@H](CCCCN)NC(=O)[C@H](CO)NC(=O)[C@@H](NC(=O)[C@H](CC(=O)O)NC(=O)[C@H](CO)NC(=O)[C@@H](NC(=O)[C@H](Cc1ccccc1)NC(=O)[C@@H](NC(=O)CNC(=O)[C@H](CCC(N)=O)NC(=O)C(C)(C)NC(=O)[C@@H](N)Cc1c[nH]cn1)[C@@H](C)O)[C@@H](C)O)C(C)C)[C@@H](C)O)C(C)C)C(=O)N[C@@H](CC(C)C)C(=O)NC(C)(C)C(=O)N[C@H](C(=O)N[C@@H](CCC(=O)O)C(=O)O)[C@@H](C)O` [Peptide 410] (H-H[Aib]QGTFTSDVSK[αMeF]LDTK([AEEA-AEEA-γGlu-C20 diacid])RARDFVAWLL[Aib]TE-OH; N-terminus assumed) are 455 pM, 78 pM and 11.5.

The record behind these values is US20250353891A1 (MEDIMMUNE LIMITED, priority 2022, published 2025).
